Laboratory results taken from patent US4879381A, “7-(substituted or unsubstituted amino) 3-substituted methyl-^3 cephem-4-carboxylic acid” (Toyoma Chemical Company, Ltd., priority 1980, dated 1989).
In brackets after ≈: the same amount, converted by molar mass. Where a name gives a salt, the structure may show the parent alone. Read-outs that look alike come from different tables or passages of the source.

How the values were obtained:
Type in all cases: cell-based
E. coli NIHJ = assay: Antibacterial activity (MIC, agar plate, standard method of the Japanese Chemotherapeutic Society); conditions: 10^4 cells/plate, 37° C., 20 hours
Experimental: (§1) According to the standard method of the Japanese Chemotherapeutic Society [Chemotherapy, Vol. 23, Pages 1-2 (1975)], a culture obtained by cultivating bacteria in Heart Infusion broth (manufactured by Eken Kagakusha) at 37° C. for 20 hours was inoculated into a Heart Infusion agar medium (manufactured by Eiken Kagakusha) and cultivated at 37° C. for 20 hours, after which the growth of bacteria was examined visually. The minimum inhibitory concentration at which the bacterial growth was inhibited was taken as MIC (μg/ml). The amount of the inoculated bacteria was 10^4 cells/plate (10^6 cells/ml).

Aci. calcoaceticus A-6 = assay: Antibacterial activity (MIC, agar plate); conditions: Acinetobacter calcoaceticus, A6, 10^4 cells/plate, 37° C., 20 hours, read-out: MIC
Experimental: as §1

Al. faecalis B-1 = assay: Antibacterial activity (MIC, agar plate); conditions: Alcaligenes faecalis
Experimental: as §1

[1] = test system: E. coli TK3 (Penicillinase-producing bacteria); assay: Antibacterial activity (MIC, agar plate)
Experimental: as §1

Ent. cloacae IID977 = assay: Antibacterial activity (MIC, agar plate); conditions: Enterobacter cloacae, 10^4 cells/plate, 37° C., 20 hours, read-out: MIC
Experimental: as §1

Kl. pneumoniae Y-41 = assay: Antibacterial activity (MIC, agar plate)
Experimental: as §1

Kl. pneumoniae Y-50 = assay: Antibacterial activity (MIC, agar plate); conditions: 37° C., 20 hours
Experimental: as §1

Pro. mirabilis T-111 = assay: Antibacterial activity (MIC, agar plate)
Experimental: as §1

Pro. morganii T-216 = assay: Antibacterial activity (MIC, agar plate); conditions: Morganella morganii
Experimental: as §1

[2] = test system: Pro. vulgaris GN76 (Cephalosporinase-producing bacteria); assay: Antibacterial activity (MIC, agar plate); conditions: Proteus vulgaris
Experimental: as §1

Ser. marcescens IID620 = assay: Antibacterial activity (MIC, agar plate); conditions: Serratia marcescens
Experimental: as §1

Klebsiella spp Y-72 = assay: Antibacterial activity (MIC, agar plate); conditions: Y72; Klebsiella spp Y-72; 10^4 cells/plate, 37° C., 20 hours; read-out: MIC
Experimental: as §1

Pro. mirabilis T-100 = assay: Antibacterial activity (MIC, agar plate); conditions: 37° C., 20 hours
Experimental: as §1

[3] = Escherichia coli, read-out: MIC
[4] = Klebsiella pneumoniae, Y41, Kl. pneumoniae Y-41, 10^4 cells/plate, 37° C., 20 hours, read-out: MIC
[5] = Klebsiella pneumoniae, Y50, 10^4 cells/plate, read-out: MIC
[6] = Pro. vulgaris GN76 (cephalosporinase-producing), 10^4 cells/plate, 37° C., 20 hours, read-out: MIC
[7] = B1, Al. faecalis B-1, 10^4 cells/plate, 37° C., 20 hours, read-out: MIC
[8] = Escherichia coli, E. coli TK3 (penicillinase-producing), 10^4 cells/plate, 37° C., 20 hours, read-out: MIC
[9] = Proteus mirabilis, T100, 10^4 cells/plate, read-out: MIC
[10] = Klebsiella pneumoniae, Y41, 20 h
[11] = Proteus mirabilis, T111, Pro. mirabilis T-111, 10^4 cells/plate, 37° C., 20 hours, read-out: MIC
[12] = Ser. marcescens IID620, 10^4 cells/plate, 37° C., 20 hours, read-out: MIC

SMILES	MIC (E. coli NIHJ; [3]) [µg/mL]	MIC (Aci. calcoaceticus A-6) [µg/mL]	MIC ([1]; Escherichia coli, 20 h) [µg/mL]	MIC (Ent. cloacae IID977) [µg/mL]	MIC (Kl. pneumoniae Y-41; [4]) [µg/mL]	MIC (Kl. pneumoniae Y-50; [5]) [µg/mL]	MIC (Pro. mirabilis T-111; Proteus mirabilis, T111, 20 h) [µg/mL]	MIC (Pro. morganii T-216; T216, 20 h) [µg/mL]	MIC [2, 6] [µg/mL]	MIC (Al. faecalis B-1; [7]) [µg/mL]	MIC (Pro. mirabilis T-100; [9]) [µg/mL]	also measured
CO/N=C(\C(=O)NC1C(=O)N2C(C(=O)O)=C(Cn3ncnn3)CSC12)c1csc(N)n1 (stereo not drawn) [F, Trifluoroacetic acid salt of 7-[2-(2-aminothiazol-4-yl)-2-(syn)-methoxyiminoacetamido]-3-[2-(1,2,3,4-tetrazolyl)methyl]-Δ^3-cephem-4-carboxylic acid]	≤ 0.1	6.25	≤ 0.1	12.5	≤ 0.1	≤ 0.1	≤ 0.1	≤ 0.1	0.78	–	–	MIC (Al. faecalis B-1; B1, 20 h): 3.13 µg/mL; MIC (Ser. marcescens IID620; IID620, 20 h): 0.39 µg/mL
CO/N=C(\C(=O)NC1C(=O)N2C(C(=O)O)=C(Cc3ccc(O)cc3)CSC12)c1csc(N)n1 (stereo not drawn) [D, Trifluoroacetic acid salt of 7-[2-(2-aminothiazol-4-yl)-2-(syn)-methoxyiminoacetamido]-3-(4-hydroxybenzyl)-Δ^3-cephem-4-carboxylic acid]	≤ 0.1	6.25	–	25	0.78	0.2	0.78	0.78	1.56	25	≤ 0.1	MIC [1, 8]: 1.56 µg/mL; MIC (Klebsiella spp Y-72): 6.25 µg/mL; MIC (Ser. marcescens IID620; IID620, 20 h): 3.13 µg/mL
CCc1nnn(CC2=C(C(=O)O)N3C(=O)C(NC(=O)/C(=N\OC)c4csc(N)n4)C3SC2)n1 (stereo not drawn) [K, Trifluoroacetic acid salt of 7-[2-(2-aminothiazol-4-yl)-2-(syn)-methoxyiminoacetamido]-3-[2-(5-ethyl-1,2,3,4-tetrazolyl)methyl]-Δ^3-cephem-4-carboxylic acid]	≤ 0.1	–	0.39	–	0.78	0.2	0.78	–	–	–	≤ 0.1	–
CO/N=C(\C(=O)NC1C(=O)N2C(C(=O)O)=C(Cn3nnc(NC(C)=O)n3)CSC12)c1csc(N)n1 (stereo not drawn) [I, Trifluoroacetic acid salt of 7-[2-(2-aminothiazol-4-yl)-2-(syn)-methoxyiminoacetamido]-3-[2-(5-acetamido-1,2,3,4-tetrazolyl)methyl]-Δ^3-cephem-4-carboxylic acid]	≤ 0.1	–	0.39	–	–	≤ 0.1	≤ 0.1	–	–	–	≤ 0.1	MIC (Kl. pneumoniae Y-41; [10]): 0.2 µg/mL
CC(=O)Nc1nnn(CC2=C(C(=O)O)N3C(=O)C(NC(=O)Cc4csc(N)n4)C3SC2)n1 (stereo not shown) [M, Trifluoroacetic acid salt of 7-[2-(2-aminothiazol-4-yl)acetamido]-3-[2-(5-acetamido-1,2,3,4-tetrazolyl)methyl]-Δ^3-cephem-4-carboxylic acid]	0.39	–	1.56	–	0.78	0.78	0.78	–	–	–	0.39	–
CO/N=C(\C(=O)NC1C(=O)N2C(C(=O)O)=C(Cn3cnc(Cl)n3)CS[C@H]12)c1csc(N)n1.O=C(O)C(F)(F)F (stereo partly drawn) [L, Trifluoroacetic acid salt of 7-[2-(2-aminothiazol-4-yl)-2-(syn)-methoxyiminoacetamido]-3-[(3-chloro-1,2,4-triazolyl)methyl]-Δ^3-cephem-4-carboxylic acid]	–	–	–	–	–	–	–	–	–	–	–	MIC (E. coli NIHJ): ≤ 0.1 µg/mL; MIC ([1]; E. coli TK3 (penicillinase-producing), 10^4 cells/plate, 37° C., 20 hours): 0.39 µg/mL; MIC (Kl. pneumoniae Y-41; Kl. pneumoniae Y-41, 10^4 cells/plate, 37° C., 20 hours): 0.39 µg/mL; MIC (Kl. pneumoniae Y-50; 10^4 cells/plate): ≤ 0.1 µg/mL; MIC (Pro. mirabilis T-100; 10^4 cells/plate): ≤ 0.1 µg/mL; MIC (Pro. mirabilis T-111; Pro. mirabilis T-111, 10^4 cells/plate, 37° C., 20 hours): 0.78 µg/mL
Cc1nnc(SCC2=C(C(=O)O)N3C(=O)[C@@H](NC(=O)Cn4cnnn4)[C@H]3SC2)s1 [Cephazoline, reference compound]	1.56 (≈ 3.43 µM)	200 (≈ 440 µM)	–	> 200	3.13 (≈ 6.89 µM)	1.56 (≈ 3.43 µM)	–	–	> 200	100 (≈ 220 µM)	–	MIC [1, 8]: 25 µg/mL (≈ 55 µM); MIC (Klebsiella spp Y-72): > 200 µg/mL; MIC (Pro. mirabilis T-111; [11]): 6.25 µg/mL (≈ 13.8 µM); MIC (Pro. morganii T-216; T216, Pro. morganii T-216, 10^4 cells/plate, 37° C., 20 hours, read-out: MIC): > 200 µg/mL; MIC (Ser. marcescens IID620; [12]): > 200 µg/mL
CO/N=C(\C(=O)NC1C(=O)N2C(C(=O)O)=C(Cn3cnnn3)CSC12)c1csc(N)n1 (stereo not drawn) [G, Trifluoroacetic acid salt of 7-[2-(2-aminothiazol-4-yl)-2-(syn)-methoxyiminoacetamido]-3-[1-(1,2,3,4-tetrazolyl)methyl]-Δ^3-cephem-4-carboxylic acid]	≤ 0.1	25	0.39	6.25	0.2	≤ 0.1	0.2	0.2	–	12.5	–	MIC ([2]; GN76, 20 h): 0.78 µg/mL; MIC (Ser. marcescens IID620; [12]): 1.56 µg/mL
Nc1nc(CC(=O)NC2C(=O)N3C(C(=O)O)=C(Cn4ncnn4)CSC23)cs1 (stereo not shown) [N, Trifluoroacetic acid salt of 7-[2-(2-aminothiazol-4-yl)acetamido]-3-[2-(1,2,3,4-tetrazolyl)methyl]-Δ^3-cephem-4-carboxylic acid]	0.39	–	1.56	–	0.78	0.39	0.78	–	–	–	0.39	–
CO/N=C(\C(=O)NC1C(=O)N2C(C(=O)O)=C(Cn3nnc(N)n3)CSC12)c1csc(N)n1 (stereo not drawn) [H, Trifluoroacetic acid salt of 7-[2-(2-aminothiazol-4-yl)-2-(syn)-methoxyiminoacetamido]-3-[2-(5-amino-1,2,3,4-tetrazolyl)methyl]-Δ^3-cephem-4-carboxylic acid]	≤ 0.1	25	0.78	12.5	0.39	0.2	0.39	0.78	1.56	12.5	–	MIC (Ser. marcescens IID620; IID620, 20 h): 0.78 µg/mL
CO/N=C(\C(=O)NC1C(=O)N2C(C(=O)O)=C(Cn3nnc(C)n3)CSC12)c1csc(N)n1 (stereo not drawn) [J, Trifluoroacetic acid salt of 7-[2-(2-aminothiazol-4-yl)-2-(syn)-methoxyiminoacetamido]-3-[2-(5-methyl-1,2,3,4-tetrazolyl)methyl]-Δ^3-cephem-4-carboxylic acid]	≤ 0.1	–	0.39	–	–	≤ 0.1	–	–	–	–	≤ 0.1	MIC (Kl. pneumoniae Y-41; [10]): ≤ 0.39 µg/mL; MIC (Pro. mirabilis T-111; [11]): 0.2 µg/mL
